Data: paper PMC6177439, “Peptide-oligonucleotide conjugates exhibiting pyrimidine-X cleavage specificity efficiently silence miRNA target acting synergistically with RNase H” (Scientific Reports, 2018)

Key:
[1] = system: 96 nts fragment of HIV-1 RNA; set-up: method as in PMID 15047859, PMID 16615805; details: non-complementary RNA substrates; cited from earlier work
miR-17 [2] = assay: RNA cleavage assay, miR-17; format: biochemical; details: miR-17 1 µM, conjugate 20 µM, 37 °C, 24 h
Experimental: (§1) The reaction mixture (5 µl) contained 10^5 cpm (Cherenkov’s counting) of [^32P]-RNA, 1 μM unlabeled RNA, and one of the conjugates at a concentration ranging from 1 to 100 μM, 50 mM Tris-HCl, pH 7.0, 0.2 M KCl, and 1 mM EDTA. […] To identify cleavage sites, imidazole and T1-ladders produced by partial RNA cleavage with 2 M imidazole buffer (pH 7.0)[41] and with RNase T1[42], respectively, were run in parallel. To obtain quantitative data, gels were dried and analyzed using Molecular Imager FX (Bio-Rad, USA). The total extent of RNA cleavage and the extent of RNA cleavage at each individual site were determined with Quantity One software.

miR-21 [3] = assay: RNA cleavage assay, miR-21; format: biochemical; details: miR-21 1 µM, conjugate 100 µM, 37 °C, 0-144 h
Experimental: as §1

miR-21^hybrid = assay: RNA cleavage assay, miR-21^hybrid; format: biochemical; details: RNA 1 µM, conjugate 20 µM, 37 °C, 24 h time point
Experimental: as §1

miR-21 [4] = assay: Gel-retardation assay, hybridization with miR-21; format: binding; details: at equimolar concentration and higher; miR-21 1 µM, 0.5-10 µM oligonucleotide or conjugate, 37 °C, 1 h, 50 mM Tris-HCl pH 7.0, 0.2 M KCl, 1 mM EDTA, 15% native PAAG
Experimental: The samples were loaded onto the running gel immediately after quenching the reaction with an interval of 1 min. […] To obtain quantitative data, gels were dried and analyzed using Molecular Imager FX (Bio-Rad, USA). The extent of binding of oligonucleotide to miR-21 was determined using Quantity One software as a ratio of radioactivity measured in the complex to the total radioactivity applied onto the gel lane.

E2F1 = assay: Western blot of miR-17 protein target E2F1 in B16 cells; format: cell-based, murine; details: 1 µM, 72 h after transfection, GAPDH internal control
Experimental: Cell lysates were separated in 12.5% SDS-PAGE and transferred to a PVDF membrane using a semi-dry transfer. The membranes were blocked for 1 h in 3% nonfat dried milk in TBST (20 mM Tris- HCl, pH 7.6,137mMNaCl, 0.1% Tween), and incubated with primary antibodies against E2F1 (ab179445, Abcam, UK, 1:500) and reference protein GAPDH (ab9485, Abcam, UK, 1:1000) at +4 °C for night. After three washes with TBST, membranes were incubated with secondary HRP-conjugated goat anti-rabbit antibodies (ab6721, Abcam, UK) at room temperature for 1 h. After three washes with TBST luminescence detection was performed by Versadoc 4000 MP (Bio-Rad, USA) using Chemiluminescent reagent kit (Abcam, USA). Data were analyzed using GelPro 4.0 software (Media Cybernetics, USA).

melanoma B16 cells = assay: xCELLigence real-time analysis of cell proliferation; format: cell-based, murine; details: 1 µM with Lipofectamine 2000, 120 h; for cell index: untreated control cell index 5
Experimental: Proliferation experiments were performed using an xCELLigence real-time cell analysis (RTCA) system (ACEABiosciences, USA) in an atmosphere of 5% CO2 at 37 °C. B16 melanoma cells were seeded at a concentration of 5 × 10^3 cells per well of 16-well E-Plates. The following day, the cells were transfected with conjugate 4, control conjugate 7 or oligonucleotide 4 at 1 µM concentration using Lipofectamine™ 2000 (Invitrogen, USA). In 4 h after transfection, the medium in the wells was replaced with DMEM medium containing 10% of FBS and 1% of antibiotics antimycotic solution. Cell proliferation experiments were run for 120 h and Cell Index was monitored every 30 min for the whole experiment duration. Four replications of each cell densities were used in the cell proliferation experiment.

miR-17 [5] = assay: miR-17 level in B16 cells by stem-loop qPCR; format: cell-based, murine; details: for decrease in the miR-17 level: 24 h after transfection with Lipofectamine 2000, 0.5 and 1 µM, normalized to U6, mean of three independent experiments
Experimental: Murine B16 melanoma cells (1.5–1 × 10^5 per well of 24-well plate) were pre-seeded in DMEM containing 10% FBS a day before transfection and were incubated at 37 °C in a humidified atmosphere with 5% CO2. Before the transfection, the medium was replaced by serum-free and antibiotic-free DMEM, and cells were incubated for 4 h with 0.05–1 µM of conjugate 4 precomplexed with Lipofectamine 2000 (Invitrogen, USA) in Opti-MEM medium according to manufacturer’s instructions. Then, the medium was replaced by culture medium containing 10% FBS and 1% antibiotic antimycotic solution ([…] streptomycin, 10000 IU/mL penicillin, and 25 µg/mL amphotericin), and the cells were cultivated for 24 h under the same conditions. After 24 h, total RNA was isolated from the cells using TRIzol Reagent (Invitrogen, USA) according to the manufacturer’s protocol.
Expression of miR-17, miR-21, miR-18a and let-7g in B16 cells was analyzed using stem-loop PCR technology[43],[44]. cDNA synthesis was carried out using SuperScript III reverse transcriptase (SSIII RT, Invitrogen, USA) as previously described. The RT and PCR primers used in the study are presented in Table S1 (Supplementary information). PCR amplification was carried out in a total volume of 20 µl, using Maxima Hot Start Taq DNA polymerase (Thermo Scientific, USA), 1 × PCR Buffer, 1.5 mM MgCl2, 0.2 mM dNTPs, 1 × EvaGreen (Biotium, Hayward, USA), and […] of PCR sense and antisense primers. The reaction was performed with initial preheating at 94 °C for 4 min and 40 cycles of 94 °C for 40 s, 61 °C for 30 s, and 72 °C for 30 s, followed by melting point determination. The obtained PCR data were analyzed using standard Bio-Rad iQ5 v.2.0 software. For each sample, the threshold cycle (Ct) was determined. Quantitative assessment of the level of transcripts representation and relative miRNA expression was performed by comparing the Ct values for miR-17 and a reference U6.

let 7-g = assay: Off-target let-7g level in B16 cells by stem-loop qPCR; format: cell-based, murine; details: 1 µM, 24 h, Lipofectamine 2000, normalized to U6
miR-21 [6] = assay: Off-target miR-21 level in B16 cells by stem-loop qPCR; format: cell-based, murine; details: 1 µM, 24 h, Lipofectamine 2000, normalized to U6
miR-17 [7] = assay: Cleavage of duplexes miR-17/ON and miR-17/conjugate by RNase H; format: biochemical; details: miR-17 10 µM, conjugate 5 µM, 37 °C
Experimental: The reaction mixture (10 µl) contained 10^5 cpm (Cherenkov’s counting) of [^32P]-miR-17, 10 µM unlabeled miR-17, oligonucleotide 4 or conjugate 4 at a concentration of 5 µM, 50 mM Tris-HCl, pH 7.0, 0.2 M KCl, and 1 mM EDTA was incubated at 37 °C for 20 min. Then, RNase H (Thermo Scientific, USA) was added to the reaction mixture to a final concentration 100 U/ml and incubated at 37 °C. At different time points, 30 min and 1, 2, 4, 8, and 24 h, an aliquot was taken and the reaction was quenched by precipitation of RNA with 2% LiClO4 in acetone. RNA cleavage products were analyzed by electrophoresis in denaturing gel as described above.

miR-18a = assay: Off-target miR-18a level in B16 cells by stem-loop qPCR; format: cell-based, murine; details: 1 µM, 24 h, Lipofectamine 2000, normalized to U6

NH2-Gly(ArgLeu)4-TCAA [short peptide-oligonucleotide conjugate, small chemical ribonuclease used as catalytic construction]
cleavage specificity [1]: Pyr-A cleavage specificity

NH2—Gly(ArgLeu)4—P—TCAA—(DEG)—CTGTAAGCACTTTGGTCAGCGAAAGCTGAC [conjugate 5, miRNase targeted to miR-17, as conjugate 4 with single DEG linker]
cleavage of miR-17 at a 20-fold excess of conjugate (miR-17 [2]): 3%

NH2—Gly(ArgLeu)4—P—TCAA—(DEG)2—TCTGATAAGCTACGTAGCGAAAGCTACG [conjugate 2]
cleavage efficiency of miR-21 at a 100-fold excess of conjugate (miR-21 [3]): 50%
total extent of miR-21^hybrid cleavage at a 20-fold excess of conjugates (miR-21^hybrid): 85%
hybridization (binding) efficiency with miR-21 (miR-21 [4]): 48%

NH2—Gly(ArgLeu)4—P—TCAA—(DEG)2—AGT CTG ATA AGC TA [conjugate 1, peptide-oligonucleotide conjugate (miRNase) targeted to miR-21, linear 14 nt oligonucleotide, double DEG linker]
cleavage efficiency of miR-21 at a 100-fold excess of conjugate (miR-21 [3]): 50%
total extent of miR-21^hybrid cleavage at a 20-fold excess of conjugates (miR-21^hybrid): 55%
hybridization (binding) efficiency with miR-21 (miR-21 [4]): 25%

NH2—Gly(ArgLeu)4—P—TCAA—(TrEG)2—CGATAAATAACGCGCAAGTCAGCGAAAGCTGACTTG [conjugate 7, control conjugate addressed to luciferase mRNA]
increase of the level of E2F1 protein as compared with control (E2F1): no statistically significant change
cell index (melanoma B16 cells): 3.2
decrease in the miR-17 level (miR-17 [5]): does not evoke any statistically significant reduction

NH2—Gly(ArgLeu)4—P—TCAA—(DEG)2—CTGTAAGCACTTTGGTCAGCGAAAGCTGAC [conjugate 4]
expression level of let 7-g versus controls (let 7-g): no statistically significant differences
expression level of miR-21 versus controls (miR-21 [6]): no statistically significant differences
increase of the level of E2F1 protein as compared with control (E2F1): 2.2 fold
cleavage of miR-17 at a 20-fold excess of conjugate (miR-17 [2]): 9%
cell index (melanoma B16 cells): 1
fold decrease of growth rate / inhibition of cell proliferation (melanoma B16 cells; versus untreated cells): 5 fold
advantage in inhibition efficiency in comparison with antisense oligonucleotide 4 (miR-17 [5]): 2 fold
decrease in the miR-17 level (miR-17 [5]): 80%
lowest concentration with statistically significant reduction of miR-17 level (miR-17 [5]; 24 h after transfection, range 0.05-1 µM): 0.1 µM
increase of conjugate activity (miR-17 cleavage at conjugate sites) in the presence of RNase H (miR-17 [7]; RNase H 100 U/ml): 11 fold
miR-17 cleavage at RNase H sites during the first 2 h, with RNase H (miR-17 [7]; RNase H 100 U/ml, 2 h): 45%
miR-17 cleavage at sites C17-A18 and U21-A22 after 4 h, with RNase H (miR-17 [7]; RNase H 100 U/ml, 4 h): 47%
miR-17 destroyed after 8 h, with RNase H (miR-17 [7]; RNase H 100 U/ml, 8 h): 95%
miR-17 cleavage by conjugate alone under two-fold excess of RNA (miR-17 [7]; no RNase H, 24 h): 9%
expression level of miR-18a versus controls (miR-18a): no statistically significant differences

NH2—Gly(ArgLeu)4—P— (DEG)2—CTGTAAGCACTTTGGTCAGCGAAAGCTGAC [conjugate 6]
cleavage of miR-17 at a 20-fold excess of conjugate (miR-17 [2]): complete loss of ribonuclease activity
